According to PMC11726150, “Pre‐ADMET studies of 5‐(3′,4′‐dihydroxyphenyl)‐γ‐valerolactone, the bioactive intestinal metabolite of proanthocyanidins” (Archiv Der Pharmazie, 2024):
Values belong to the compound of their own block, whether it stands above or below them.

How the values were obtained:
[1] = In vitro transport study across 21‐day Caco2 monolayers; type: in vitro ADME, human; conditions: human, Caco-2, Caco2 model, N = 4; for Papp A→B at 120 min: absorptive direction, read-out: P app A–B (mean ± SD); for Papp A→B at 120 min / Papp B→A at 120 min: VL 50 μM dosed (VLS formed as metabolite), controls 10 μM; for Papp B→A at 120 min: secretory direction, read-out: P app B–A (mean ± SD); for efflux ratio at 120 min: Papp(B−A)/Papp(A−B), read-out: Efflux ratio (mean ± SD)
Procedure: (§1) Caco2 cells between passage numbers 42–50 and MDCK cells between passage numbers 21–26 were used for transport studies; the assay was conducted as reported by Volpe^[ [33] ^] with slight modifications. Transport experiments were performed in 12‐well Transwell plates. Caco2 cells were seeded at a density of 60,000 cells/cm^2 and grown for 21 days, with change of media every 3 days, while MDCK cells were seeded at a density of 70,000 cells/cm^2 and grown for 5 days, changing the medium daily. The physiological and morphological formation of a confluent monolayer was evaluated by measuring the TEER value: Caco2 monolayers became confluent 1 week after seeding with TEER values greater than 450 Ω/cm^2, while MDCK monolayers became confluent 24 h after seeding with TEER values greater than 90 Ω/cm^2. Phenol red and serum‐free DMEM/F12 medium was used as transport buffer. For bidirectional transport, VL (50 μM) and control compound (propranolol and paclitaxel, 10 μM) were added to the apical side to determine apical to basolateral transport (A–B; absorptive direction) and to the basal side to determine basolateral to apical transport (B–A; secretory direction). The volume of the apical and basolateral chambers was 0.5 and 1.5 mL, respectively. Aliquots of 120 μL were taken from the basolateral (for A–B transport) or the apical (for B–A transport) chamber at 30, 60, 90, and 120 min. An equal volume was replaced with a transport buffer at every time point. At the beginning and at the end of the experiment, an aliquot was also taken from the apical or basolateral chamber for analysis of the drug. To determine the integrity of monolayers, TEER values were measured before and after the experiment. In addition, at the end of the experiment cells were collected and lysed to evaluate the compound intake. Briefly, cells were washed twice with cold PBS and 200 µL of cold MeOH was added to detach and lysate the cells; subsequently, cells were collected into lo‐bind Eppendorf and sonicated in ice for 10 min, then centrifuged for 15 min at 4°C at 14,000 rpm (Eppendorf Centrifuge 5430 R). The supernatant was collected and used for further analysis.
(§2) The apparent permeability P app (cm/s) of compounds was calculated from the following equation (Equation 1), while P app (cm/s) of the metabolites was calculated from the equation (Equation 2): (1) Papp=dQ/dt×1/C×1/A.
(§3) Equation (1) for calculating P app (cm/s) of tested reference compounds. (2) Papp=Metabolic cleareance/A.
(§4) Equation (2) for calculating P app (cm/s) of compound metabolites.
(§5) with Metabolic cleareance=Rate of metabolism/C and where dQ/dt is the rate of transport, C is the initial concentration in the donor compartment, and A is the surface area of the filter. To quantify the rate of transport, cumulative amounts of test compounds were plotted against time (min).
(§6) Efflux ratio was calculated using the following equation (Equation 3)^[ [48] ^]: (3) Efflux ratio=Papp(B−A)/Papp(A−B).

Caco2 monolayers = experiment: as above; type: in vitro ADME, human; conditions: Caco2 model, VL 50 μM dosed (VLS formed as metabolite), controls 10 μM, N = 4; for P app A–B (mean ± SD): absorptive direction; for P app B–A (mean ± SD): secretory direction
Procedure: as §1, §2, §3, §4, §5, §6

[2] = In vitro transport study across 5‐day Wt‐MDCK monolayers; type: in vitro ADME, canine; conditions: dog, Wt‐MDCK model, N = 4; for Papp A→B at 120 min: absorptive direction, read-out: P app A–B (mean ± SD); for Papp A→B at 120 min / Papp B→A at 120 min: VL 50 μM dosed (VLS formed as metabolite), controls 10 μM; for Papp B→A at 120 min: secretory direction, read-out: P app B–A (mean ± SD); for efflux ratio at 120 min: Papp(B−A)/Papp(A−B), read-out: Efflux ratio (mean ± SD)
Procedure: as §1, §2, §3, §4, §5, §6

Wt‐MDCK monolayers = experiment: as above; type: in vitro ADME, canine; conditions: Wt‐MDCK model, VL 50 μM dosed (VLS formed as metabolite), controls 10 μM, N = 4; for P app A–B (mean ± SD): absorptive direction; for P app B–A (mean ± SD): secretory direction
Procedure: as §1, §2, §3, §4, §5, §6

[3] = design: method as in earlier work; conditions: healthy subjects, ref 43 (Di Pede et al.), cited from earlier work; for Cmax: human plasma, after PACs intake, read-out: C MAX (mean ± SD) in plasma; for average urinary excretion (% of ingested dose): human urine
P‐gp = experiment: Rhodamine‐123 uptake assay, induction (48 h), differentiated Caco2 cells; type: cell-based, human; conditions: 10 µM, 48 h treatment; 0.1% DMSO vehicle control = 100%
Procedure: P‐gp modulation was determined in differentiated Caco2 cells by Rh‐123 uptake assay.^[ [49] ^] In brief, cells in the logarithmic growth phase with 70%–80% confluency were harvested and seeded at a density of 2 × 10^4/well of a 96‐well plate. Cells were allowed to grow for 21 days in a CO2 incubator changing the medium every other day.
After treatment, cells were washed with Hank's buffer and 200 μL of phenol, and serum‐free DMEM/F12 medium containing […] of Rh‐123 was added and cells were incubated for 90 min. The final steps were as described previously.

PXR = target: T1, PXR (Homo sapiens, UniProt O75469); type: cell-based; design: expressed in transfected cells; host or cells: HepG2 and LS174T cells, transient electroporation; conditions: HepG2 cells, 10 µM
T1 sequence (O75469 1-434): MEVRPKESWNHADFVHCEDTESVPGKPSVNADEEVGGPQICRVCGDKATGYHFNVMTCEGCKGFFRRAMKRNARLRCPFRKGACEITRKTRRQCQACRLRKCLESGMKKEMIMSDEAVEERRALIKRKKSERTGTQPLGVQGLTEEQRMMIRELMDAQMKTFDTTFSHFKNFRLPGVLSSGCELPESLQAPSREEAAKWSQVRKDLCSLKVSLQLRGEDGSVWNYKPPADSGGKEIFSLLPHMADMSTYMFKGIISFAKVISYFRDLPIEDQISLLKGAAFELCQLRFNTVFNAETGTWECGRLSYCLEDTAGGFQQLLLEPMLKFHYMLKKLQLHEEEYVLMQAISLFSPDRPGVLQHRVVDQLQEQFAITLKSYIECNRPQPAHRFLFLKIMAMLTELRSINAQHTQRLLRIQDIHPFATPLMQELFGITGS
Procedure: The PXR activation potential of VL was determined in transiently transfected HepG2 and LS174T cells as described earlier.^[ [50] ^] In brief, 24‐h‐old cells having 70%−80% confluency were trypsinized and transfected with pSG5‐hPXR (25 μg) and PCR‐5 (25 μg) plasmid DNA by electroporation at 180 V (1 pulse for 70 ms). Cells were incubated at room temperature for 8 min and floating dead cells were carefully removed. Cells were seeded in 96‐well plates at a density of 50,000 cells/well. […] Following 24 h of incubation, the culture medium was aspirated and 40 μL of luciferase reagent (Promega Corporation) was added to each well. Luminescence was measured using a Spectramax M5 plate reader (Molecular Devices) and the fold increase in luciferase activity among sample‐treated cells was calculated in comparison with the vehicle‐treated (DMSO) cells.

Caco2 cells = experiment: MTT cell viability assay; type: cell-based, human; conditions: Caco2, 20 μM, data not shown
Procedure: (§7) The effect of test samples on cell viability was measured using an MTT assay. Briefly, exponentially growing 2 × 10^4 cells/200 μL were seeded in 96‐well plates and allowed to grow until reaching their differentiation state. Cells were treated with different concentrations of VL (50–1.6 µM) and positive control camptothecin (30–1 μM) serially diluted in serum‐free medium. After incubation, 10 μL of MTT dye (5 mg/mL stock in PBS) was added to each well, and plates were additionally incubated for 4 h. Further, media were aspirated, and cells were washed with 100 μL of phosphate buffer saline. The formazan blue crystals formed by viable cells were dissolved in 150 μL of DMSO, and the absorbance was measured at 580 nm on a Bio‐Tek, Synergy HT Multi‐Mode, plate reader. The % decrease in viability of sample‐treated cells was calculated compared with vehicle‐treated cells.^[ [46] ^]

HepG2 cells = experiment: MTT cell viability assay; type: cell-based, human; conditions: HepG2, 20 μM, data not shown
Procedure: as §7

LS174T cells = experiment: MTT cell viability assay; type: cell-based, human; conditions: 20 μM, data not shown
Procedure: as §7

Wt‐MDCK cells = experiment: MTT cell viability assay; type: cell-based, canine; conditions: 20 μM, data not shown
Procedure: as §7

Papp A→B at 120 min [1]: 1.2 ×10⁻⁶ cm/s
Papp B→A at 120 min [1]: 3.42 ×10⁻⁶ cm/s
efflux ratio at 120 min [1]: 2.54 ± 2.06
P app A–B (mean ± SD) (Caco2 monolayers): 1.202 ×10⁻⁶ cm/s
P app B–A (mean ± SD) (Caco2 monolayers): 3.421 ×10⁻⁶ cm/s
Papp A→B at 120 min [2]: 5.18 ×10⁻⁶ cm/s
Papp B→A at 120 min [2]: 2.95 ×10⁻⁶ cm/s
efflux ratio at 120 min [2]: 0.55 ± 0.089
P app A–B (mean ± SD) (Wt‐MDCK monolayers): 5.183 ×10⁻⁶ cm/s
P app B–A (mean ± SD) (Wt‐MDCK monolayers): 2.952 ×10⁻⁶ cm/s
SMILES: CC(=O)O[C@H]1C(=O)[C@@]2(C)[C@H]([C@H](OC(=O)c3ccccc3)[C@]3(O)C[C@H](OC(=O)[C@H](O)[C@@H](NC(=O)c4ccccc4)c4ccccc4)C(C)=C1C3(C)C)[C@]1(OC(C)=O)CO[C@@H]1C[C@@H]2O [Paclitaxel]

SMILES: O=C1CC[C@H](Cc2ccc(OS(=O)(=O)O)c(O)c2)O1 [3ʹ‐OH‐PVL‐4ʹ‐sulfate]
Cmax [3]: 368 ± 156 nM
average urinary excretion (% of ingested dose) [3]: 11.3% ± 14.8%

SMILES: CO[C@H]1/C=C/O[C@@]2(C)Oc3c(C)c(O)c4c(O)c(c(/C=N/N5CCN(C)CC5)c(O)c4c3C2=O)NC(=O)/C(C)=C\C=C\[C@H](C)[C@H](O)[C@@H](C)[C@@H](O)[C@@H](C)[C@H](OC(C)=O)[C@@H]1C [RIF, rifampicin, reference compound]
intracellular accumulation of Rh‐123 (P‐gp): 75%
PXR activation (PXR): 3.4 folds

SMILES: CC[C@@]1(O)C(=O)OCc2c1cc1n(c2=O)Cc2cc3ccccc3nc2-1 [camptothecin]
effect on cell viability (Caco2 cells): dramatically reduced the viability
effect on cell viability (HepG2 cells): dramatically reduced the viability
effect on cell viability (LS174T cells): dramatically reduced the viability
effect on cell viability (Wt‐MDCK cells): dramatically reduced the viability

SMILES: COc1cccc2c1C(=O)c1c(O)c3c(c(O)c1C2=O)C[C@@](O)(C(=O)CO)C[C@@H]3O[C@H]1C[C@H](N)[C@H](O)[C@H](C)O1 [doxorubicin]
effect on cell viability (Caco2 cells): dramatically reduced the viability
effect on cell viability (HepG2 cells): dramatically reduced the viability
effect on cell viability (LS174T cells): dramatically reduced the viability
effect on cell viability (Wt‐MDCK cells): dramatically reduced the viability

Papp A→B at 120 min [1]: 15.4 ×10⁻⁶ cm/s
Papp B→A at 120 min [1]: 13 ×10⁻⁶ cm/s
efflux ratio at 120 min [1]: 0.859 ± 0.085
P app A–B (mean ± SD) (Caco2 monolayers): 15.39 ×10⁻⁶ cm/s
P app B–A (mean ± SD) (Caco2 monolayers): 12.96 ×10⁻⁶ cm/s
Papp A→B at 120 min [2]: 10.1 ×10⁻⁶ cm/s
Papp B→A at 120 min [2]: 5.36 ×10⁻⁶ cm/s
efflux ratio at 120 min [2]: 0.535 ± 0.058
P app A–B (mean ± SD) (Wt‐MDCK monolayers): 10.05 ×10⁻⁶ cm/s
P app B–A (mean ± SD) (Wt‐MDCK monolayers): 5.364 ×10⁻⁶ cm/s
SMILES: CC(C)NCC(O)COc1cccc2ccccc12 (stereo not shown) [Propranolol]

SMILES: O=C1CC[C@H](Cc2ccc(O)c(OC3OC(C(=O)O)C(O)C(O)C3O)c2)O1 (stereo partly shown) [4ʹ‐OH‐PVL‐3ʹ‐glucuronide]
Cmax [3]: 229 ± 345 nM
average urinary excretion (% of ingested dose) [3]: 3.1% ± 3.3%
